Experimental data as given in the supplement of paper PMC10307832.

How the values were obtained:
Experiment in all cases: relative viability (nuclei count vs DMSO), 5 days (fraction); higher = more cells survive
[1] = compound: CC[C@@H]1C(=O)N(C)c2cnc(Nc3ccc(C(=O)NC4CCN(C)CC4)cc3OC)nc2N1C1CCCC1 [BI-2536] + Nc1ncn([C@H]2C[C@H](O)[C@@H](CO)O2)c(=O)n1 [Decitabine] (partner 2 µM)
Procedure, shortened: (§1)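 A single step with final 0.05% Triton X-100, 1% formaldehyde and 1 ug/ml Hoechst fixed the cells and stained nuclei 5 days after treatment. Lung cancer cell lines in 1536-well plates had been treated by pin tool the day after seeding with one drug alone or a fixed anchor-drug dose plus five library-drug doses (not always all listed) in √10 steps, and nuclei were counted on 4× images. Relative viability is the ratio of nuclei in treated wells to nuclei in vehicle wells, taken as the median of duplicate plates.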

[2] = compound: CC1CC(=O)N(C2=CN=C(N=C2N1C3CCCC3)NC4=C(C=C(C=C4)C(=O)NC5CCN(CC5)C)OC)C [NPK76-II-72-1] + Cc1nc(NC(=O)N2CCC[C@H]2C(N)=O)sc1-c1ccnc(C(C)(C)C(F)(F)F)c1 [Alpelisib] (partner 2 µM)
Procedure, shortened: as §1

[3] = compound: CC[C@@H]1C(=O)N(C)c2cnc(Nc3ccc(C(=O)NC4CCN(C)CC4)cc3OC)nc2N1C1CCCC1 [BI-2536] + CS(=O)(=O)CCNCc1ccc(-c2ccc3ncnc(Nc4ccc(OCc5cccc(F)c5)c(Cl)c4)c3c2)o1 [Lapatinib] (partner 2 µM)
Procedure, shortened: as §1

[4] = compound: CC1CC(=O)N(C2=CN=C(N=C2N1C3CCCC3)NC4=C(C=C(C=C4)C(=O)NC5CCN(CC5)C)OC)C [NPK76-II-72-1] + Nc1nc2[nH]cc(CCc3ccc(C(=O)N[C@@H](CCC(=O)O)C(=O)O)cc3)c2c(=O)[nH]1 [Pemetrexed] (partner 0.2 µM)
Procedure, shortened: as §1

UMC-11 gave a relative viability ([1]; first compound 0.01 µM) of 0.568, a relative viability ([1]; first compound 0.03162 µM) of 0.306 and a relative viability ([1]; first compound 0.1 µM) of 0.232. The relative viability ([1]; first compound 0.3162 µM) was 0.265, the relative viability ([1]; first compound 1 µM) was 0.28 and the relative viability ([2]; first compound 0.01 µM) was 0.967. The relative viability ([2]; first compound 0.03162 µM) was 0.994, the relative viability ([2]; first compound 0.1 µM) was 1.02 and the relative viability ([2]; first compound 0.3162 µM) was 0.835. The relative viability ([2]; first compound 1 µM) was 0.978, the relative viability ([3]; first compound 0.01 µM) was 1.02 and the relative viability ([3]; first compound 0.03162 µM) was 0.765. The relative viability ([3]; first compound 0.1 µM) was 0.132, the relative viability ([3]; first compound 0.3162 µM) was 0.17 and the relative viability ([3]; first compound 1 µM) was 0.18. For the same cell line, the relative viability ([4]; first compound 0.01 µM) was 0.79, the relative viability ([4]; first compound 0.03162 µM) was 0.869 and the relative viability ([4]; first compound 0.1 µM) was 0.768. It also gave a relative viability ([4]; first compound 0.3162 µM) of 0.728 and a relative viability ([4]; first compound 1 µM) of 0.697.
